According to patent US20020142347A1, “Biosensor” (BIOSENSOR ApS, priority 2000, published 2002):
Residue numbers refer to the chain shown, from its start.

Experiments:
FACI-24 [1] = target: T1, FACI-24 (Bos taurus, UniProt P07107, M25C); experiment: Fluorescence titration equilibrium binding analysis of CoA and acyl-CoA esters to FACI-24; set-up: species or system bovine; details: FACI-24 (1.5 μM) titrated with increasing CoA and acyl-CoA concentration; fitted binding curves, emission 460 nm; read-out: Kd (nM) ± S.E.
T1 construct: made in house; host or cells: E. coli BL21(DE3)pLysS, pET3a vector
T1 sequence (P07107 2-87 M25C): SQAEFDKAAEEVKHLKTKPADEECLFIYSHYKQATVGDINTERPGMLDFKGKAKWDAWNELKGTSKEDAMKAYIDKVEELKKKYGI
Description: Development of a mathematical expression describing the relationship between acyl-CoA concentration and FACI-24 fluorescence was performed essentially as by Richieri et al 1992, J Biol Chem, 267:23495-23501. However, where ligand binding to ADIFAB induces both a fluorescence intensity increase around 505 nm and a fluorescence intensity decrease around 432 nm, ligand binding to FACI-24 only causes an increase in fluorescence around 460 nm.
Derivatisation of an expression for the fluorescence value as a function of the acyl-coA concentration was done using the Scatchard equation as a starting point: [formula]
which has been used to fit the titration data.
The curves represent the best fit analysis from two independent experiment calculated and normalized as described above. The FACI-24 binding affinity increases dramatically when the acyl-chain length increases from C8 to C10 and C12, a smaller but significant drop in Kd is seen by increasing chain length from C12 to C14. C14 to C18 saturated acyl-CoA esters and C18:1-CoA binds with similar and very high affinities to FACI-24. In >0.1 M salt, FACI-24 binds acyl-CoAs with higher affinity and similar specificity as native unmodified bovine ACBP. The Kd for binding of C12-CoA and C16-CoA to native ACBP is 40 and 2.0 nM, respectively (Fulcery et al Biochemical, 1997, 325:423-428; Færgeman et al 1996, Biochemistry, 35:14118-14126). FACI-24 is highly specific for binding long-chain acyl-CoA esters.
(§1) Titration of FACI with acyl-CoAs was done using a SPEX FLOUROLOG (Industries Inc, Edison N.J., USA) with excitation at 387 nm and emission at 460 nm, with both excitation and emission slits set to 4.5 nm. FACI (0.5-4.5 uM, as indicated) was dissolved in 1.5 ml binding buffer (10 mM HEPES 150 mM NaCl, 5 mM KCl, 1 mM Na2HPO4, pH 7.4) and titrated with a 10 μM acyl-CoA dissolved in binding buffer, with or without FACI added, as indicated. Fluorescence emission values (counts per second) measured without FACI added to the ligand stock solution were corrected for titrand dilution.
Up to four parameters were fitted in this way, these were B, representing the point of saturation on the X axis, H, representing the maximum fluorescence, i.e. the fluorescence at saturating concentration of acyl-CoA, L, the minimum fluorescence value, i.e. the fluorescence of FACI-24 alone in buffer, and K, the Kd value lor the acyl-CoA in question. Initial estimates for the fittable parameters were typically: B=1, H=maximum fluorescence value measured, L=minimum fluorescence value measured (at acyl-CoA-concentration=0), and K as judged from the raw data, typically from 0.0001 uM to 0.1 uM for acyl-CoA longer than C10:0-CoA.
For each acyl-CoA at least two titrations and fittings were performed. To consider two or more titrations of the same acyl-CoA together and obtain a Kd value using all these titrations, both axes of the raw data were standardised using the fitted values of B, H and L in this way:
X axis standard=(raw X axis values)/Bfitted
Y axis standard=[(raw Y axis values)−Lfitted]/[Hfitted−Lfitted]
In this way all Y axis values should come to lie between 0 and 1 and the X axis value should be 1 at the point of saturation (FACI-24:acyl-CoA 1:1). Such adjusted data were pooled and fitted using DataFit. Typically, both H and B fitted to values close to 1 and L fitted to values close to 0. K was typically fitted to values somewhere between the two values obtained for the raw data.
This could be overcome by removing B from the fittable parameters list and instead setting it to a constant value of 1 and fitting again. This was typically done for both the raw and the standardised data.

M24C-badan ACBP = target: T2, M24C-badan ACBP (Bos taurus, UniProt P07107, M25C); experiment: Isothermal titration micro calorimetry of acyl-CoA binding to M24C-badan ACBP; set-up: species or system bovine; details: isotermal titration micro calorimetry
T2 construct: made in house; host or cells: E. coli BL21(DE3)pLysS, pET3a vector
T2 sequence (P07107 2-87 M25C): T1 sequence (P07107 2-87 M25C)
Description: Quantitative determination of binding affinities (KD) were performed by isothermal titration micro calorimetry as previously described (Faergeman et. al., 1996; Biochemistry 35, 14118-14126). Qualitative evaluation of relative binding affinities were determined by isoelectrical focusing using the Pharmacia Fast Gel system according to the prescriptions given by the manufacture. Fluorescence emission changes induced by acyl-CoA binding to badan modified protein were determined as follows: 5 μl portions of acyl-CoAs were added from stock solutions disolved in binding buffer, (10 mM Hepes, 150 mM NaCL, 1 mM NaHPO4, pH 7.4) containing 3.4 μM Badan derivatized protein to a 1 ml 3.4 μM solution of the Badan derivatized ACBP in the same buffer. The fluorescence emission was measured on a SPEX FLOUROLOG (Industries Inc, Edison N.J., USA) with excitation at 400 nm and emission scan from 400 nm to 550 nm. The concentration of acyl-CoA in the aqueous phase was determined from the fluorescence emission sensitivities at 495 and 470 nm repectively essentially by the method described by (Grynkiewickz et. al.,1985, J. Biol. Chem. 260, 3440-3450) according to which: […]

FACI-24 [2] = target: T1, FACI-24; experiment: Fluorescence emission change of FACI-24 on titration with CoA and acyl-CoA esters; format: binding, bovine; details: emission maximum without ligand 510 nm; excitation 400 nm
Description: (§2) Quantitative determination of binding affinities (KD) were performed by isothermal titration micro calorimetry as previously described (Faergeman et. al., 1996; Biochemistry 35, 14118-14126). Qualitative evaluation of relative binding affinities were determined by isoelectrical focusing using the Pharmacia Fast Gel system according to the prescriptions given by the manufacture. Fluorescence emission changes induced by acyl-CoA binding to badan modified protein were determined as follows: 5 μl portions of acyl-CoAs were added from stock solutions disolved in binding buffer, (10 mM Hepes, 150 mM NaCL, 1 mM NaHPO4, pH 7.4) containing 3.4 μM Badan derivatized protein to a 1 ml 3.4 μM solution of the Badan derivatized ACBP in the same buffer. The fluorescence emission was measured on a SPEX FLOUROLOG (Industries Inc, Edison N.J., USA) with excitation at 400 nm and emission scan from 400 nm to 550 nm. The concentration of acyl-CoA in the aqueous phase was determined from the fluorescence emission sensitivities at 495 and 470 nm repectively essentially by the method described by (Grynkiewickz et. al.,1985, J. Biol. Chem. 260, 3440-3450) according to which:
(§3) Fluorescence titration emission spectra from 415 nm to 550 nm (excitation at 400 nm) were performed for CoA, C4:0-, C8:0-, C12:0-, C16:0-, and C20:0-CoA with all four mutated and badan modified proteins.
The emission maximum of FACI-24 without ligand added was 510 nm and titration with CoA, C4:0-, C8:0-, C12:0-, […], C16:0- and C20:0-CoA caused 0, 16, 34, 42, 46 and 46 nm downshift in emission maximum, respectively (results not shown). C16:0-CoA induced a 5,5 fold increase in emission at 464 nm (FIG. 10).
as §1

FACI53 = target: T3, FACI53 (Bos taurus, UniProt P07107, A54C); experiment: Fluorescence emission change of FACI-53 on titration with CoA and acyl-CoA esters; format: binding, bovine
T3 construct: badan (6-bromoacetyl-2-dimethylaminonaphthalene) fluorophore on the introduced Cys-53; made in house; host or cells: E. coli BL21(DE3)pLysS, pET3a vector
T3 sequence (P07107 2-87 A54C): T1 sequence (P07107 2-87 M25C) with C24M, A53C
Description: as §2, §3
Titration of FACI-53 dissolved in binding buffer with the above mentioned acyl-CoA esters produced a smooth downward shift in fluorescence emission maximum from 525 nm when no ligand was present to 508, 503, 490, 492, 496 and 514 with increasing concentrations of CoA, C4:0-, C8:0-, C12:0-, C16:0- and C20:0-CoA respectively.

native bovine ACBP = target: T4, native bovine ACBP (Bos taurus, UniProt P07107); details: isothermal titration microcalorimetry, >0.1 M salt; literature; read-out: KD for binding to native bovine ACBP; cited from earlier work
T4 sequence (P07107 1-87): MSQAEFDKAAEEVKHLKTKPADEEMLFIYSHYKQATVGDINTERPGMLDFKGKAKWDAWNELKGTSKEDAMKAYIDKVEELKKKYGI

In the case of `CCCCCCCCCCCC(=O)SCCNC(=O)CCNC(=O)[C@H](O)C(C)(C)COP(=O)(O)OP(=O)(O)OC[C@H]1O[C@@H](n2cnc3c(N)ncnc32)[C@H](O)[C@@H]1OP(=O)(O)O` [C12:0-CoA, dodecanoyl-CoA], the Kd (FACI-24 [1]) is reported as 10.2 ± 0.81 nM, the Kd (M24C-badan ACBP) is reported as 40 nM and the “Downshift in emission maximum of FACI-24” value (FACI-24 [2]) is reported as 42 nm. The “Magnitude of emission of FACI-53, fold increase” value (FACI53) was 2.7 fold, the “Fluorescence emission maximum of FACI-53 with ligand” value (FACI53; 525 nm when no ligand present, excitation 400 nm) was 492 nm and the “Relative emission of FACI-53 at 495 nm, fold increase” value (FACI53; emission at 495 nm) was 4.7 fold. The Kd (native bovine ACBP) was 40 nM.
